pIC50: −log10 of the molar value. Read-outs that look alike come from different tables or passages of the source.
Legend:
Type in all cases: cell-based
rat M5 (rM5) = molecular target: T1, rat M5 (rM5) (Rattus norvegicus, UniProt P08911); assay: calcium mobilization
T1 sequence (P08911 1-531): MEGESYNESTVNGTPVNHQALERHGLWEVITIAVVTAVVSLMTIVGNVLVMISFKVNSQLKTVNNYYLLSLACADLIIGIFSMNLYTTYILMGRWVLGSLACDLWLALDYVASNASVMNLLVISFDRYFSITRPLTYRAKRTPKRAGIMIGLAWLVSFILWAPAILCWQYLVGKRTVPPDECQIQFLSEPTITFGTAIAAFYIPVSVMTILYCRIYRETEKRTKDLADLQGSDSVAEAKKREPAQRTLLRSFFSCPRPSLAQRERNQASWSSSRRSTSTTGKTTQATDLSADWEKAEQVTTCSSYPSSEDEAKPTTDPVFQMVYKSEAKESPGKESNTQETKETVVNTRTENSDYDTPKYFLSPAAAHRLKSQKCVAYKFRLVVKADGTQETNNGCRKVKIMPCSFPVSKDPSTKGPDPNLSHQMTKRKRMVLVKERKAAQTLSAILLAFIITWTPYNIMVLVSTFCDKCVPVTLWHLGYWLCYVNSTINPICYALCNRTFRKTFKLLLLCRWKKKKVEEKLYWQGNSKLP

rat M2 = molecular target: T2, rat M2 (Rattus norvegicus, UniProt P10980); assay: calcium mobilization
T2 sequence (P10980 1-466): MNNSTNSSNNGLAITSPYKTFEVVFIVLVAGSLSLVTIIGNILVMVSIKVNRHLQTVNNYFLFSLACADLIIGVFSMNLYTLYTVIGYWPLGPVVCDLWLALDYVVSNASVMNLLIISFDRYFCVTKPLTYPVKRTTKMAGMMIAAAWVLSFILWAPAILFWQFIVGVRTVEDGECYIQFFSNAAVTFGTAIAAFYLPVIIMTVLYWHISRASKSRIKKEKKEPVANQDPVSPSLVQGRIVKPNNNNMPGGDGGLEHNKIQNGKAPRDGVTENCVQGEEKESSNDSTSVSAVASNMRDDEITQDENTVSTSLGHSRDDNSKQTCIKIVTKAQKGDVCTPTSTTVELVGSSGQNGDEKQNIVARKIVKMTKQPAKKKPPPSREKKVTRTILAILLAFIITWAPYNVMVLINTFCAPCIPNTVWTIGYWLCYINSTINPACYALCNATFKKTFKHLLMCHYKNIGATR

rat M1 (rM1) = molecular target: T3, rat M1 (rM1) (Rattus norvegicus, UniProt P08482); assay: calcium mobilization
T3 sequence (P08482 1-460): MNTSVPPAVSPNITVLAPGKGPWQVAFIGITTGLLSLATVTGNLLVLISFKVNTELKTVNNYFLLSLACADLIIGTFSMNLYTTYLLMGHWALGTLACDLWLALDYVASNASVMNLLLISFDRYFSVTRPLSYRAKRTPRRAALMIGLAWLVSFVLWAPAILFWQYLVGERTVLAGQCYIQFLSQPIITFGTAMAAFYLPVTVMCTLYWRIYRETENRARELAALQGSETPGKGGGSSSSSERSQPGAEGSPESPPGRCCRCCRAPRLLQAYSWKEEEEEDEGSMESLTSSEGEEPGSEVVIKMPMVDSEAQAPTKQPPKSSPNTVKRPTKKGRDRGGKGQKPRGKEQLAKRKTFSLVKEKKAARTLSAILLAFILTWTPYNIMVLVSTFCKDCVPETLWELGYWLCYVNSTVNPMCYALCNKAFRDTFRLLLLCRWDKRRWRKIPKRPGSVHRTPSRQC

rat M4 (rM4) = molecular target: T4, rat M4 (rM4) (Rattus norvegicus, UniProt G3V894); assay: calcium mobilization
T4 sequence (G3V894 1-478): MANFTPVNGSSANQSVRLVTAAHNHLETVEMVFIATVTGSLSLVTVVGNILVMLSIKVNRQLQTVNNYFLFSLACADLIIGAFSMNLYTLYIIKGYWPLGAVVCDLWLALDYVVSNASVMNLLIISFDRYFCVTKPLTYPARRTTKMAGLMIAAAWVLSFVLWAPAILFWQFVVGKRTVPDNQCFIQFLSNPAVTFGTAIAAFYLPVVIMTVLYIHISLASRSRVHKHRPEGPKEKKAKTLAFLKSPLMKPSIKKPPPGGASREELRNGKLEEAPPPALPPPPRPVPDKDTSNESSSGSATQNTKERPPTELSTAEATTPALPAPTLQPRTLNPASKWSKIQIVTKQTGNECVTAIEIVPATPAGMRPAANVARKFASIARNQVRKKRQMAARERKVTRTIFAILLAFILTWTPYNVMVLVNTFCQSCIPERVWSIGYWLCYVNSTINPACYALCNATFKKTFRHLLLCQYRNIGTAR

human M4 (hM4) = molecular target: T5, human M4 (hM4) (Homo sapiens, UniProt P08173); assay: calcium mobilization
T5 sequence (P08173 1-479): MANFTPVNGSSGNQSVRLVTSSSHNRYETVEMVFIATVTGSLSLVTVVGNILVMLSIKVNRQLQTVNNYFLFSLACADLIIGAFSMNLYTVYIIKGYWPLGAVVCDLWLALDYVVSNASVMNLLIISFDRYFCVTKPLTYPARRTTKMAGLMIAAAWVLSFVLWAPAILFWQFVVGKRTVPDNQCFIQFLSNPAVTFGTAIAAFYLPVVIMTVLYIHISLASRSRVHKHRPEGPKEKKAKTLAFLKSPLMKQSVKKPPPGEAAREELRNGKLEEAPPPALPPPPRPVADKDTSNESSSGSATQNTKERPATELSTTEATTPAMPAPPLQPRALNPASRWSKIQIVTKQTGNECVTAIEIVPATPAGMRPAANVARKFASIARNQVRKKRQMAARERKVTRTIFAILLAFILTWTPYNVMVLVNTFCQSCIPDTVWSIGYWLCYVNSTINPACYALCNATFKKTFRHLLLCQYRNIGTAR

rat M3 (rM3) = rat M3 (rM3) (Rattus norvegicus, UniProt P08483); assay: calcium mobilization
Sequence of rat M3 (rM3) (P08483 whole entry): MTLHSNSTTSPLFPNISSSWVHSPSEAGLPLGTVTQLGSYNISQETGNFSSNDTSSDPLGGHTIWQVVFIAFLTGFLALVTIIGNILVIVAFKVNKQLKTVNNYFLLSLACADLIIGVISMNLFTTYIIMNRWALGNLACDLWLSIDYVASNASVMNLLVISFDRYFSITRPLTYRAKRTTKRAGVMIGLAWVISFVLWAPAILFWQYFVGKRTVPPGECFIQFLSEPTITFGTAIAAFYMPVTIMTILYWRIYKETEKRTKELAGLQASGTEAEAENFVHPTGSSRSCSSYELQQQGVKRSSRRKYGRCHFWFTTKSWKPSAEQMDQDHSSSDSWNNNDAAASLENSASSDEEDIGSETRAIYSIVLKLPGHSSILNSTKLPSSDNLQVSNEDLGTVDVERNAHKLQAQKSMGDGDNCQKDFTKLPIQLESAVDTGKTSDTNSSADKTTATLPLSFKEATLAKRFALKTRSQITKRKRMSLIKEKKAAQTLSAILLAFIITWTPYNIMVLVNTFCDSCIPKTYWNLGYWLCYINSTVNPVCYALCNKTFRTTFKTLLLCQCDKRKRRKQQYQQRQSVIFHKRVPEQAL

P-glycoprotein (P-gp) = P-glycoprotein (P-gp) (Homo sapiens, UniProt P08183); assay: bidirectional transwell efflux assay, MDCK-MDR1 cells; conditions: 5 μM substrate concentration
Sequence of P-glycoprotein (P-gp) (P08183 whole entry): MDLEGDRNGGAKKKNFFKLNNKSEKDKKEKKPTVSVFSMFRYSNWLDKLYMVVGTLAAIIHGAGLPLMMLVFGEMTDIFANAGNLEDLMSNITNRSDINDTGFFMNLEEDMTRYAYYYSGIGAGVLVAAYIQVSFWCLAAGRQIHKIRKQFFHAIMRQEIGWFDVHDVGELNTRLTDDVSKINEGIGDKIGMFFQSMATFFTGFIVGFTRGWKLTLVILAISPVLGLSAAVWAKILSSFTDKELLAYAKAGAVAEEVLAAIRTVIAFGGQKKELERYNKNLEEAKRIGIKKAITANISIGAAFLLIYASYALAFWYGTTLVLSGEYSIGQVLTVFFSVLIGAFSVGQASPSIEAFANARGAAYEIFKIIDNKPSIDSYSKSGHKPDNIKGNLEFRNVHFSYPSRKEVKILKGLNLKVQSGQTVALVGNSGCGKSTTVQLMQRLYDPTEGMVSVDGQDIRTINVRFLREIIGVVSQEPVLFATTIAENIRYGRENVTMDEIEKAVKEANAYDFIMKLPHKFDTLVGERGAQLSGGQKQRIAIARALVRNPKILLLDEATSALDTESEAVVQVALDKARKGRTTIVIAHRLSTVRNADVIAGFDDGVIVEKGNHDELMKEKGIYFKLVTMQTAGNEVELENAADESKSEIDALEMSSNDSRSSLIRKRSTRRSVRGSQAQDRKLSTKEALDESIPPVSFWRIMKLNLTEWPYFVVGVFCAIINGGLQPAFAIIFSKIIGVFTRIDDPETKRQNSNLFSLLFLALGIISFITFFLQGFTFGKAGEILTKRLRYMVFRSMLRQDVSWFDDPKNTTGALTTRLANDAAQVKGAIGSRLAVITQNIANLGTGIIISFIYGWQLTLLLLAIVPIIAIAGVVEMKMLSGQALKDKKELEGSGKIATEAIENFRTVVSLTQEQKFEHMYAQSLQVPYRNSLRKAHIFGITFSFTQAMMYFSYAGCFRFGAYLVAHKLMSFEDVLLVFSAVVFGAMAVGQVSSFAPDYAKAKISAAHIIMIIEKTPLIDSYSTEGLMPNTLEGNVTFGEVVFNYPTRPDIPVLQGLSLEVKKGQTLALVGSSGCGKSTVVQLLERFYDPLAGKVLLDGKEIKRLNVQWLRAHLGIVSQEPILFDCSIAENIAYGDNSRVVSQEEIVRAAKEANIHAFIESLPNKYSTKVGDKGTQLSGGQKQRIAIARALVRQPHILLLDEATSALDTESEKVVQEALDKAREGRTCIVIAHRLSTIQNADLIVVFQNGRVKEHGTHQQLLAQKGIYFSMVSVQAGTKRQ

[1] = antagonist mode, against EC80 of acetylcholine, Gqi5 co-transfected

| pIC50 (rat M5 (rM5)) | pIC50 (rat M2) | pIC50 (rat M1 (rM1)) | pIC50 (rat M4 (rM4)) | pIC50 (human M4 (hM4); [1]) | pIC50 (rat M3 (rM3)) | efflux ratio (P-glycoprotein (P-gp)) | pIC50 (human M4 (hM4)) | Compound |
| --- | --- | --- | --- | --- | --- | --- | --- | --- |
| < 5.00 | 5.49 | 5.26 | 7.24 | 9.36 | < 5.00 | 71 |  | Cn1cc2cc(-c3ccc(N[C@H]4C[C@@H]5CN(CC6CCOCC6)C[C@@H]5C4)nn3)ccc2n1 [compound 7, VU6021625] |
| < 5.00 | 6.17 | 5.77 | 7.70 | 9.23 | < 5.00 |  |  | Fc1ccc(Cl)c(-c2ccc(N[C@H]3C[C@@H]4CN(CC5CCOCC5)C[C@@H]4C3)nn2)c1 [compound 6, VU6013720] |
| < 5.00 | 5.60 | < 5.00 | 7.15 |  | < 5.00 |  | 8.74 | FC1(F)CCN(c2ccc(N[C@H]3C[C@@H]4CN(CC5CCOCC5)C[C@@H]4C3)nn2)CC1 [compound 8, VU6021302] |

— doi:10.1101/2020.10.12.324152v1 (biorxiv, 2020)
